{"source": "patent US9266835B2", "about": "“Quinoline derivatives useful as CB-1 inverse agonists” (JANSSEN PHARMACEUTICA NV, priority 2014, dated 2016)", "key": {"[1]": {"target": "Human CB1R (Cannabinoid receptor 1) (Homo sapiens (Human), UniProt P21554)", "sequence (P21554 whole entry)": "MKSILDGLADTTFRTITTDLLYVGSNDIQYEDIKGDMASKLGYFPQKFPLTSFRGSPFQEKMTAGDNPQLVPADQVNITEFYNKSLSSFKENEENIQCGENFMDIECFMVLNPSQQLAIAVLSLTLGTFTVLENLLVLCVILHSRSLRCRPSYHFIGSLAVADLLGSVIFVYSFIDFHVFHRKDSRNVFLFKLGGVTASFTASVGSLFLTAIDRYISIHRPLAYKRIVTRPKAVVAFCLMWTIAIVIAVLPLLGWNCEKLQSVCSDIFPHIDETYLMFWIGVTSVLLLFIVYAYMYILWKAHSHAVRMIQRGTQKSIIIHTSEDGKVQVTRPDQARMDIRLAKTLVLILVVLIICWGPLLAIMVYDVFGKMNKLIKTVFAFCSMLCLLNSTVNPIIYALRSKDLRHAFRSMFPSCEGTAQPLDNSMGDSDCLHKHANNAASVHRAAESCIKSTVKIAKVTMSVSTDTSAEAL", "experiment": "CB-1 in vitro cAMP assay (HTRF), inverse agonism", "type": "cell-based", "settings": "mean where tested more than once"}, "[2]": {"experiment": "Mouse Fast PK/BBB (plasma and brain concentration)", "type": "in vivo", "settings": "male, C57bl/6j, oral, N=3 (dose given as 30 mg/kg and 20 mg/kg)", "excerpt": "(§1) Male Sprague Dawley rats were ordered from Charles River (225-250 gm upon arrival). They were fed standard chow diet (Purina 5001) and housed 2 per cage. Male C57bl/6j mice were ordered from Charles River at 22-25 g and housed 3 per cage. They were fed standard chow (Purina 5001). All animals were housed in a temperature-controlled room with 12-hour light/dark cycle. Animals were given food and water ad libitum, except as noted.\n(§2) Test compounds were formulated in 10% PEG400 and 10% solutol. Test compounds were administered by oral gavage (5 ml kg^−1).\nMale C57bl/6j mice were dosed with test compounds at 30 mg/kg. Plasma was collected via retro-orbital bleeding at 1 hr and 4 hrs after dosing. Whole brain without cerebellum was collected at 4 hrs after dosing. Wet brain weight was recorded before freezing. Brains were homogenized in saline and sent for analysis for determination of concentration of test compound.\nTable BIO-3 below present results for representative compounds of the present invention, tested according to the procedure as described above. Each compound was tested in three animals (N=3) and administered PA at 20 mg/kg"}, "[3]": {"experiment": "Chronic DIO Mouse, first study: plasma and brain concentrations", "type": "in vivo", "settings": "male, DIO mice, 2 Hours Post Dose, Day 16, (Std Dev)", "experimental": "Male 14-20-week old diet-induced obese mice were ordered from Taconic. Mice were started on a 60% fat diet (D12492, Research Diets, New Brunswick, N.J.) at 6 weeks of age. Mice were single-housed.\nas §2\nThe test compound was formulated in 10% PEG400 and 10% solutol. DIO mice received vehicle, test compound (@ 1, 3 and 10 mg/kg) daily for 26 days. At the end of the experiment, the mice were euthanized and blood and tissues were collected.\nCompound #44 was tested according to the procedure as described above, with results as listed in Table BIO-4A through Table BIO4-G, below."}, "[4]": {"experiment": "Open Field Locomotor Activity in Rats (CNS activity), stereotypic counts", "type": "in vivo, rat", "settings": "n=8, 4 hours, dose not printed in row (doses 3 and 10 mg/kg)", "excerpt": "as §1, §2\nMale SD rats were weighed and transferred to the Activity Chambers with access to water. After a 2-hr acclimation period, the rats were dosed with vehicle or test compound (@ 3 and 10 mg/kg). The Activity Chamber monitoring software program was initiated and automatically recorded rat activity in each chamber for a period of 4 hours. At the end of the 4 hour monitoring period, the software was stopped and the rats were removed from the activity chambers. The rats were anesthetized and blood samples were obtained via retro-orbital puncture to determine plasma concentration of compounds. The rats were immediately euthanized with CO2 and the brains removed, washed with PBS, frozen on dry ice and stored at −80° C. for receptor occupancy (RO) analysis. […]"}}, "note": "Where two headings read alike, the source gives them in different places."}
{"smiles": "O=c1cc(NC2CCN(S(=O)(=O)C(F)(F)F)CC2)c2cc(C(c3ccc(Cl)cc3)c3ccc(Cl)cc3)ccc2[nH]1", "note": "[Compound #44, 6-(bis(4-chlorophenyl)methyl)-4-(1-(trifluoromethylsulfonyl)piperidin-4-ylamino)quinolin-2(1H)-one]", "values": [{"measurement": "EC50", "setting": "[1]", "value": 8, "unit": "nM"}, {"measurement": "concentration at 4 h", "setting": "[2]; brain, read-out: BRAIN Mean Conc. ± Std. Dev", "value": "11.8 ± 8.99", "unit": "ng/mL"}, {"measurement": "concentration at 1 h", "setting": "[2]; plasma, 1 hr, read-out: PLASMA Mean Conc. ± Std. Dev", "value": "1050 ± 122", "unit": "ng/mL"}, {"measurement": "concentration at 4 h", "setting": "[2]; plasma, read-out: PLASMA Mean Conc. ± Std. Dev", "value": "1180 ± 148", "unit": "ng/mL"}, {"measurement": "concentration at 2 h", "setting": "[3]; brain, 1 mg/kg daily oral, read-out: Brain concentration", "value": 59.4, "unit": "ng/g"}, {"measurement": "concentration at 2 h", "setting": "[3]; brain, 3 mg/kg daily oral, read-out: Brain concentration", "value": 114, "unit": "ng/g"}, {"measurement": "concentration at 2 h", "setting": "[3]; brain, 10 mg/kg daily oral, read-out: Brain concentration", "value": 244, "unit": "ng/g"}, {"measurement": "concentration at 2 h", "setting": "[3]; plasma, 1 mg/kg daily oral, read-out: Plasma concentration", "value": 31, "unit": "ng/mL"}, {"measurement": "concentration at 2 h", "setting": "[3]; plasma, 3 mg/kg daily oral, read-out: Plasma concentration", "value": 1510, "unit": "ng/mL"}, {"measurement": "concentration at 2 h", "setting": "[3]; plasma, 10 mg/kg daily oral, read-out: Plasma concentration", "value": 4440, "unit": "ng/mL"}, {"measurement": "Stereotypic Counts (MEAN)", "setting": "[4]; first #44 row", "value": 3250}, {"measurement": "Stereotypic Counts (MEAN)", "setting": "[4]; second #44 row", "value": 2850}]}
